# Data as given in patent US4459290A, “C-23-Modified derivatives of OMT, pharmaceutical compositions and method of use” (priority 1982, dated 1984).
# Legend:
# Type in all cases: cell-based
# [1] = tested on: Escherichia coli TEM; assay: MIC, standard agar-dilution assay (Table V); conditions: Escherichia coli; E. coli TEM; agar dilution; read-out: MIC
# Experimental: (§1) The MIC's in Tables V and VI were determined by standard agar-dilution assays. The MIC's in Table VII were obtained using a conventional broth-dilution microtiter test.
# [2] = tested on: Streptococcus pyogenes C203; assay: MIC, standard agar-dilution assay (Table V); conditions: Streptococcus pyogenes; S. pyogenes C203; agar dilution; read-out: MIC
# Experimental: as §1
# [3] = tested on: these strains; assay: Activity against the strains of Table VI, agar-dilution; conditions: at the levels tested
# Experimental: (§2) Especially noteworthy is the improved activity against gram-negative bacteria for several derivatives when compared to the activity of OMT. […] The MIC's in Tables V and VI were determined by standard agar-dilution assays. The MIC's in Table VII were obtained using a conventional broth-dilution microtiter test.
# [4] = tested on: Pasteurella multocida 60A; assay: MIC, broth-dilution microtiter test (Table VII); conditions: Pasteurella multocida, 60A
# How it was run: (§3)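 Conventional dilution MICs: agar for Enterobacter, microtiter broth for Staphylococcus and Pasteurella.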
# [5] = tested on: Pasteurella hemolytica 41D; assay: MIC, broth-dilution microtiter test (Table VII); conditions: Pasteurella, P. hemolytica 41D, read-out: MIC
# How it was run: as §3
# [6] = tested on: Mycoplasma gallisepticum; assay: MIC, broth-dilution microtiter test (Table VII); conditions: Mycoplasmoides gallisepticum; M. gallisepticum; broth-dilution microtiter; read-out: MIC
# Experimental: as §2
# [7] = tested on: Pasteurella multocida 68C; assay: MIC, broth-dilution microtiter test (Table VII); conditions: Pasteurella multocida, 68C
# How it was run: as §3
# [8] = tested on: Pasteurella multocida 40G; assay: MIC, broth-dilution microtiter test (Table VII); conditions: Pasteurella multocida, 40G
# How it was run: as §3
# [9] = tested on: Mycoplasma hyorhinis; assay: MIC, broth-dilution microtiter test (Table VII)
# Experimental: as §2
# [10] = tested on: Pasteurella multocida 22A; assay: MIC, broth-dilution microtiter test (Table VII); conditions: Pasteurella multocida, 22A
# How it was run: as §3
# [11] = tested on: Mycoplasma synoviae; assay: MIC, broth-dilution microtiter test (Table VII); conditions: Mycoplasmopsis synoviae
# Experimental: as §2
# [12] = tested on: Pasteurella multocida 17E; assay: MIC, broth-dilution microtiter test (Table VII); conditions: Pasteurella multocida, 17E
# How it was run: as §3
# [13] = tested on: Streptococcus sp. 80; assay: MIC, broth-dilution microtiter test (Table VII); conditions: Streptococcus sp. 80; broth-dilution microtiter; read-out: MIC
# Experimental: as §2
# [14] = tested on: Staphylococcus aureus; assay: MIC, broth-dilution microtiter test (Table VII); conditions: Staphylococcus aureus
# How it was run: as §3
# [15] = tested on: Pasteurella hemolytica 23C; assay: MIC, broth-dilution microtiter test (Table VII); conditions: Pasteurella, P. hemolytica 23C, read-out: MIC
# How it was run: as §3
# [16] = tested on: Pasteurella hemolytica 22C; assay: MIC, broth-dilution microtiter test (Table VII); conditions: Pasteurella, P. hemolytica 22C, read-out: MIC
# How it was run: as §3
# [17] = tested on: Staphylococcus epidermidis EPI2; assay: MIC, standard agar-dilution assay (Table V); conditions: Staphylococcus epidermidis; S. epidermidis EPI2; agar dilution; read-out: MIC
# Experimental: as §2
# [18] = tested on: Streptococcus Group D X66; assay: MIC, standard agar-dilution assay (Table V)
# Experimental: as §2
# [19] = tested on: Staphylococcus aureus X400; assay: MIC, standard agar-dilution assay (Table V); conditions: Staphylococcus aureus; S. aureus X400, methicillin-resistant strain; agar dilution; read-out: MIC
# Experimental: as §2
# [20] = tested on: Shigella sonnei N9; assay: MIC, standard agar-dilution assay (Table V)
# How it was run: (§4)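 Growth inhibition in liquid medium, in a routine microtiter broth-dilution series, gave the MIC against staphylococci and pasteurellae; the gram-negative enteric strain was tested by conventional agar dilution instead.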
# [21] = tested on: Klebsiella pneumoniae KAE; assay: MIC, standard agar-dilution assay (Table V); conditions: Klebsiella pneumoniae; K. pneumoniae KAE; agar dilution; read-out: MIC
# How it was run: as §4
# [22] = tested on: Streptococcus Group 9960; assay: MIC, standard agar-dilution assay (Table V); conditions: GROUP9960
# Experimental: as §2
# [23] = tested on: Klebsiella pneumoniae X26; assay: MIC, standard agar-dilution assay (Table V); conditions: Klebsiella pneumoniae, X26
# Experimental: as §2
# [24] = tested on: Staphylococcus epidermidis EPI1; assay: MIC, standard agar-dilution assay (Table V); conditions: Staphylococcus epidermidis; S. epidermidis EPI1; agar dilution; read-out: MIC
# Experimental: as §2
# [25] = tested on: Staphylococcus aureus S13E; assay: MIC, standard agar-dilution assay (Table V); conditions: Staphylococcus aureus, S13E
# Experimental: as §2
# [26] = tested on: Escherichia coli N10; assay: MIC, standard agar-dilution assay (Table V); conditions: Escherichia coli; E. coli N10; agar dilution; read-out: MIC
# How it was run: as §4
# [27] = tested on: Staphylococcus aureus X1.1; assay: MIC, standard agar-dilution assay (Table V); conditions: Staphylococcus aureus, X1.1
# Experimental: as §2
# [28] = tested on: Escherichia coli EC14; assay: MIC, standard agar-dilution assay (Table V); conditions: Escherichia coli; E. coli EC14; agar dilution; read-out: MIC
# How it was run: as §4
# [29] = tested on: Staphylococcus aureus V41; assay: MIC, standard agar-dilution assay (Table V); conditions: Staphylococcus aureus; S. aureus V41, penicillin-resistant strain; agar dilution; read-out: MIC
# Experimental: as §2
# [30] = tested on: Streptococcus pneumoniae Park I; assay: microbe, parasite or virus in culture; conditions: Streptococcus pneumoniae; S. pneumoniae Park I; agar dilution; read-out: MIC
# Experimental: as §2
smiles,measurement,setting,value
"CCC1OC(=O)CC(O)C(C)C(OC2OC(C)C(O)C(N(C)C)C2OC(C)=O)C(CC=O)CC(C)C(=O)C=CC(C)=CC1C[n+]1ccccc1 (stereo not drawn) [Compound 1, 2'-O-Acetyl-23-deoxy-23-pyridinium-OMT Trifluoro methanesulfonate]",MIC,[1],> 128 mg/L
same,MIC,[2],32 mg/L
same,activity against these strains,[3],did not show activity
same,MIC,[4],> 50 mg/L
same,MIC,[5],> 50 mg/L
same,MIC,[6],25 mg/L
same,MIC,[7],> 50 mg/L
same,MIC,[8],> 50 mg/L
same,MIC,[9],50 mg/L
same,MIC,[10],> 50 mg/L
same,MIC,[11],12.5 mg/L
same,MIC,[12],> 50 mg/L
same,MIC,[13],12.5 mg/L
same,MIC,[14],50 mg/L
same,MIC,[15],> 50 mg/L
same,MIC,[16],> 50 mg/L
same,MIC,[17],64 mg/L
same,MIC,[18],64 mg/L
same,MIC,[19],64 mg/L
same,MIC,[20],> 128 mg/L
same,MIC,[21],> 128 mg/L
same,MIC,[22],64 mg/L
same,MIC,[23],64 mg/L
same,MIC,[24],32 mg/L
same,MIC,[25],32 mg/L
same,MIC,[26],> 128 mg/L
same,MIC,[27],32 mg/L
same,MIC,[28],> 128 mg/L
same,MIC,[29],64 mg/L
same,MIC,[30],8 mg/L
